Structures can show the parent of a compound that is named as a salt.

The assay concerns the target Thromboxane-A synthase (Oryctolagus cuniculus). As to the kind of experiment: Inhibitory activity against rabbit thromboxane synthetase.
Regarding `O=C(O)/C=C\CCCCCn1ccnc1` [8-Imidazol-1-yl-oct-2-enoic acid], the IC50 – broadly, the concentration that gives 50% inhibition – stood at 16 nM.
The molecule `O=C(O)C(CCCCCCn1ccnc1)c1ccccc1` (stereo not drawn) [8-Imidazol-1-yl-2-phenyl-octanoic acid; hydrochloride] had a 50% inhibitory concentration (IC50) of 38 nM.
Then `O=C(O)/C=C/CCCCCn1ccnc1` [8-Imidazol-1-yl-oct-2-enoic acid; hydrochloride], with 70 nM.
For `O=C(O)C1(CCCCCCn2ccnc2)CCCCC1` [1-(6-Imidazol-1-yl-hexyl)-cyclohexanecarboxylic acid; hydrochloride], half-maximal inhibition (IC50) was put at 46 nM.
Next, `CC(C)(CCCCn1ccnc1)CCC(=O)O` [8-Imidazol-1-yl-4,4-dimethyl-octanoic acid; hydrochloride]: 71 nM; `CC(C)(CCCCCCC(=O)O)n1ccnc1` [8-Imidazol-1-yl-8-methyl-nonanoic acid; hydrochloride]: 90 nM.
Then `CC(CCCCCCn1ccnc1)C(=O)O` (stereo not drawn) [8-Imidazol-1-yl-2-methyl-octanoic acid; hydrochloride], with 30 nM.
Then `O=C(O)CCCC/C=C\Cn1ccnc1` [8-Imidazol-1-yl-oct-6-enoic acid; hydrochloride], with 56 nM.
